Data as given in patent US9328129B2, “Peptidomimetic inhibitors of PSMA” (Washington State University, priority 2010, dated 2016).

What was measured:
LNCaP (PSMA+) cells [1] = assay: Extent of internalization of the 99mTc-labeled probe; assay type: cell-based
Protocol: (§1) Both LNCaP (PSMA+) and PC3 (PSMA−) cells were treated with DTPA-SCN-CTT-54 labeled with pertechnetate (^99mTcO4^−) reduced with SnCl2. At increasing time points at 37° C., cells were washed free of the probe and uptake was determined as a percentage of the total amount of probe applied.

[2] = tested on: LNCaP PSMA+ tumor xenografts; assay: Biodistribution of the 99mTc-labeled probe in mice bearing LNCaP and PC3 tumor xenografts; assay type: in vivo, mouse; details: LNCaP PSMA+ tumor xenograft, 4 hours following tail-vein injection
Text: Both PSMA+ (LNCaP) and PSMA− (PC3) tumor xenografts were implanted in opposite rear flanks of each mouse. Thus, each mouse served as both a positive and negative control.

LNCaP (PSMA+) cells [3] = assay: Uptake of 99mTc-labeled DTPA-SCN-CTT-54 by cells, as percentage of total probe applied; assay type: cell-based
Protocol: as §1

PSMA = biological target: T1, PSMA (Homo sapiens, UniProt Q04609); assay: Competitive binding experiments: preincubation with unlabeled CTT-54 before the radiolabeled probe; assay type: cell-based; details: 0 nM CTT-54, probe 2 hours
T1 construct: endogenous in cells; host or cells: LNCaP
T1 sequence (Q04609 whole entry): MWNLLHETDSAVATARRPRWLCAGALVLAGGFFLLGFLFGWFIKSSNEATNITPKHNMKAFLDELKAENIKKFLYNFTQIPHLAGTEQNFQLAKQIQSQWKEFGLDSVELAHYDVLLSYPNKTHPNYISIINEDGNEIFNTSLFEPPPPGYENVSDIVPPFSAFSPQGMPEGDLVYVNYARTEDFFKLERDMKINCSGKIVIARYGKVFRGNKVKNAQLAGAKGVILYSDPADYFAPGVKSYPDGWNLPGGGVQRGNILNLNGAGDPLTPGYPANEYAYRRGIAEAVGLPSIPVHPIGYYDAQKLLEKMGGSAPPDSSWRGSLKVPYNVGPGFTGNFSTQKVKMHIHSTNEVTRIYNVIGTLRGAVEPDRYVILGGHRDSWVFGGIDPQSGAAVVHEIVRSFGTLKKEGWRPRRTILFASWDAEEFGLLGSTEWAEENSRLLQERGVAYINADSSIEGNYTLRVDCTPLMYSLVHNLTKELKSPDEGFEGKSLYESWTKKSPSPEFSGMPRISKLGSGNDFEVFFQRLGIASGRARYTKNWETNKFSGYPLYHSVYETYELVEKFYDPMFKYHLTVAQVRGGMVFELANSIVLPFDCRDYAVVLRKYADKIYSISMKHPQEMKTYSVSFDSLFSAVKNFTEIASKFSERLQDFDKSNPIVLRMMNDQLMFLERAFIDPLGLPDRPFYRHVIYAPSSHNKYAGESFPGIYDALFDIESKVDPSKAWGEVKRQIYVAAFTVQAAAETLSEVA

% Uptake of the radiolabeled probe without competitor (PSMA) | Compound | % internalization (LNCaP (PSMA+) cells [1]; 30 min) | % internalization (LNCaP (PSMA+) cells [1]; 2 hr) | % internalization (LNCaP (PSMA+) cells [1]; 4 hr) | extent of internalization of the probe (LNCaP (PSMA+) cells [1]; preliminary studies) | internalization (LNCaP (PSMA+) cells [1]; within 30 min) | uptake in tumor xenografts (biodistribution) [2] | time for binding to the cell surface (LNCaP (PSMA+) cells [3]) | % uptake (LNCaP (PSMA+) cells [3]; 30 min) | % uptake (LNCaP (PSMA+) cells [3]; 2 hr) | % uptake (LNCaP (PSMA+) cells [3]; 4 hr) | uptake (LNCaP versus PC3 cells) (LNCaP (PSMA+) cells [3]; labeled with pertechnetate (99mTcO4−) reduced with SnCl2, increasing time points at 37° C.)
 | O=C(O)CC[C@H](NP(=O)(O)OC[C@H](NC(=O)CC[C@H](NC(=S)Nc1ccc(CC(CN(CCN(CC(=O)O)CC(=O)O)CC(=O)O)N(CC(=O)O)CC(=O)O)cc1)C(=O)O)C(=O)O)C(=O)O (stereo partly drawn) (99mTc complex, metal not drawn) [DTPA-SCN-CTT-54, N-{[(4-{2-[bis(carboxymethyl)amino]-3-[{2-[bis(carboxymethyl)amino]ethyl} (carboxymethyl)amino]propyl}phenyl)amino]carbonothioyl}-L-γ-glutamyl-O-[{[(1S)-1,3-dicarboxypropyl]amino} (hydroxy)phosphoryl]-L-serine] | 71.9% | 71.0% | 79.5% | greater than 80% | greater than 70% | substantial uptake | ≤ 30 min | 2.30% | 2.94% | 2.34% | exclusive for LNCaP cells
4.46% | O=C(O)CC[C@H](NP(=O)(O)OC[C@H](NC(=O)CC[C@H](NC(=S)Nc1ccc(CC(CN(CCN(CC(=O)O)CC(=O)O)CC(=O)O)N(CC(=O)O)CC(=O)O)cc1)C(=O)O)C(=O)O)C(=O)O (stereo partly drawn) [DTPA-SCN-CTT-54, N-{[(4-{2-[bis(carboxymethyl)amino]-3-[{2-[bis(carboxymethyl)amino]ethyl} (carboxymethyl)amino]propyl}phenyl)amino]carbonothioyl}-L-γ-glutamyl-O-[{[(1S)-1,3-dicarboxypropyl]amino} (hydroxy)phosphoryl]-L-serine] |  |  |  |  |  |  |  |  |  |  | 
